In patent US11142515B2, “Pyrazolyl-ureas as kinase inhibitors” (RESPIVERT LIMITED, priority 2014, dated 2021):

Assays:
[1] = molecular target: T1, p38 MAPKα isoform (MAPK14) (Homo sapiens, UniProt Q16539); test: p38 MAPKα enzyme inhibition (Z-LYTE FRET); type: biochemical; details: Table 2B, unit inferred; read-out: p38 MAPKα (Enzyme Profile)
T1 construct: purchased Life Technologies
Method: The enzyme inhibitory activities of compounds disclosed herein were determined by FRET using synthetic peptides labelled with both donor and acceptor fluorophores (Z-LYTE, Life Technologies, Paisley, UK).
The inhibitory activities of compounds of the invention against the p38 MAPKα isoform (MAPK14: Life Technologies), were evaluated indirectly by determining the level of activation/phosphorylation of the target peptide of the p38 MAPKα down-stream molecule, MAPKAP-K2. The enzyme (40 ng/mL, 2.5 μL) was incubated with the test compound (2.5 μL of either 40 μg/mL, 12 μg/mL, 4 μg/mL, 1.2 μg/mL, 0.4 μg/mL, 0.12 μg/mL, 0.04 μg/mL, 0.012 μg/mL, 0.004 μg/mL or 0.0012 μg/mL) for 2 h at RT. […] Development reagent (protease, 5 μL) was added for 1 h prior to detection in a fluorescence microplate reader (EnVision, Perkin Elmer, Waltham, Mass., USA).
In all cases, the site-specific protease cleaves non-phosphorylated peptide only and eliminates the FRET signal. Phosphorylation levels of each reaction were calculated using the ratio of coumarin emission (donor) over fluorescein emission (acceptor), for which low ratios indicate high phosphorylation and high ratios indicate low phosphorylation levels.

p38MAPKγ (MAPK12) = molecular target: T2, p38MAPKγ (MAPK12) (Homo sapiens, UniProt P53778); test: p38 MAPKγ enzyme inhibition (Z-LYTE FRET); type: biochemical; details: Table 2B, unit inferred; read-out: p38 MAPKγ (Enzyme Profile)
T2 construct: purchased Life Technologies
T2 sequence (P53778 1-367): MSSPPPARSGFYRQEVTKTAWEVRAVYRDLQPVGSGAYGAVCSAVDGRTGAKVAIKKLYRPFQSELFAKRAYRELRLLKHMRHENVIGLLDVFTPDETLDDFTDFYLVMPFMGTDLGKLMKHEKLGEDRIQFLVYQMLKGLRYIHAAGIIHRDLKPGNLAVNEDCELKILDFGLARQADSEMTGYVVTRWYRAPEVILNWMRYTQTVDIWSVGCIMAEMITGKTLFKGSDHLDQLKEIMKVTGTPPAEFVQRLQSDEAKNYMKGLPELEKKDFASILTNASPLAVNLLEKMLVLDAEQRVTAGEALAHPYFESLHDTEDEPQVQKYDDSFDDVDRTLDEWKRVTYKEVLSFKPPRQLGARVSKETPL
Outline: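 Z-LYTE read-out: after 1 h protease development, only non-phosphorylated peptide is cleaved, and the donor/acceptor (coumarin/fluorescein) ratio reports phosphorylation. Beforehand, enzyme and compound (stock concentrations 0.0012–40 μg/mL) were preincubated 2 h at RT, then the kinase reaction ran 1 h at RT with peptide and ATP (8 μM and 400 μM stocks).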

T1 sequence (Q16539 whole entry, canonical isoform): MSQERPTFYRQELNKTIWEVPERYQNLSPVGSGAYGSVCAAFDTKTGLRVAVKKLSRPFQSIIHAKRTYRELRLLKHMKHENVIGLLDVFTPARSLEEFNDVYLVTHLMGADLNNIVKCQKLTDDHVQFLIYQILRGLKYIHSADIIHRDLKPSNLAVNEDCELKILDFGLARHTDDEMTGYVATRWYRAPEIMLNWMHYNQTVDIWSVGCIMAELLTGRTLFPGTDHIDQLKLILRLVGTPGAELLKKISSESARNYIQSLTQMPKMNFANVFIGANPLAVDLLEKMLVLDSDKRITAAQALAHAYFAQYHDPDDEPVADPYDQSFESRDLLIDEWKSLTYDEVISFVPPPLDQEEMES

| SMILES | IC50 [1] [nM] | IC50 (p38MAPKγ (MAPK12)) [nM] |
| --- | --- | --- |
| CO[C@H]1CCN(C(=O)c2cnc(Nc3cc(COc4ccc(NC(=O)Nc5cc(C(C)(C)C)nn5-c5ccc(C)cc5)c5ccccc45)ccn3)cn2)C1 [Example 67] | 39 | 345 |
| Cc1ccc(-n2nc(C(C)(C)C)cc2NC(=O)Nc2ccc(OCc3ccnc(Nc4cncc(OCC(C)C)n4)c3)c3ccccc23)cc1 [Example 122, 1-(3-(tert-butyl)-1-(p-tolyl)-1H-pyrazol-5-yl)-3-(4-((2-((6-isobutoxypyrazin-2-yl)amino)pyridin-4-yl)methoxy)naphthalen-1-yl) urea] | 2780 | 8740 |
| Cc1cc(F)cc(-n2nc(C(C)(C)C)cc2NC(=O)Nc2ccc(OCc3ccnc(Nc4cnc(C(=O)N5CCCC5)cn4)c3)c3ccccc23)c1 [Example 236, 1-(3-(tert-butyl)-1-(3-fluoro-5-methylphenyl)-1H-pyrazol-5-yl)-3-(4-((2-((5-(pyrrolidine-1-carbonyl)pyrazin-2-yl)amino)pyridin-4-yl)methoxy)naphthalen-1-yl)urea] | 42 | > 14000 |
| Cc1cccc(-n2nc(C(C)(C)C)cc2NC(=O)Nc2ccc(OCc3ccnc(Nc4cnc(C)c(C)n4)c3)c3ccccc23)c1 [Example 58] | 18 | 435 |
| CN(C)c1ccc(-n2nc(C(C)(C)C)cc2NC(=O)Nc2ccc(OCc3ccnc(Nc4cnccn4)c3)c3ccccc23)cn1 [Example 78] | 21 | 422 |
| Cc1ccc(-n2nc(C(C)(C)C)cc2NC(=O)Nc2ccc(OCc3ccnc(Nc4cncc(N5CC(O)C5)n4)c3)c3ccccc23)cc1 [Example 123, 1-(3-(tert-butyl)-1-(p-tolyl)-1H-pyrazol-5-yl)-3-(4-((2-((6-(3-hydroxyazetidin-1-yl)pyrazin-2-yl)amino)pyridin-4-yl)methoxy)naphthalen-1-yl)urea] | 60 | 171 |
| CCCc1cncc(Nc2cc(COc3ccc(NC(=O)Nc4cc(C(C)(C)C)nn4-c4cccc(OC)c4)c4ccccc34)ccn2)n1 [Example 189, 1-(3-(tert-butyl)-1-(3-methoxyphenyl)-1H-pyrazol-5-yl)-3-(4-((2-((6-propyl-pyrazin-2-yl)amino)pyridin-4-yl)methoxy)naphthalen-1-yl)urea] | 72 | 579 |
| COCCCNC(=O)c1cnc(Nc2cc(COc3ccc(NC(=O)Nc4cc(C(C)(C)C)nn4-c4ccc(C)cc4)c4ccccc34)ccn2)cn1 [Example 186, 5-((4-(((4-(3-(3-(tert-butyl)-1-(p-tolyl)-1H-pyrazol-5-yl)ureido)naphthalen-1-yl)oxy)methyl)pyridin-2-yl)amino)-N-(3-methoxypropyl) pyrazine-2-carboxamide] | 25 | > 14000 |
| COCC(=O)Nc1cncc(Nc2cc(COc3ccc(NC(=O)Nc4cc(C(C)(C)C)nn4-c4ccc(C)cc4)c4ccccc34)ccn2)n1 [Example 107, N-(6-((4-(((4-(3-(3-(tert-butyl)-1-(p-tolyl)-1H-pyrazol-5-yl)ureido)naphthalen-1-yl)oxy)methyl)pyridin-2-yl)amino)pyrazin-2-yl)-2-methoxyacetamide] | 27 | 5730 |
| CC(C)(C)c1cc(NC(=O)Nc2ccc(OCc3ccnc(Nc4cnc(C(=O)N5CCCC5)cn4)c3)c3ccccc23)n(-c2cccc(F)c2)n1 [Example 202, 1-(3-(tert-butyl)-1-(3-fluorophenyl)-1H-pyrazol-5-yl)-3-(4-((2-((5-(pyrrolidine-1-carbonyl)pyrazin-2-yl)amino)pyridin-4-yl)methoxy)naphthalen-1-yl)urea] | 19 | 1130 |
| CNc1cncc(Nc2cc(COc3ccc(NC(=O)Nc4cc(C(C)(C)C)nn4-c4ccc(C)cc4)c4ccccc34)ccn2)n1 [Example 120, 1-(3-(tert-butyl)-1-(p-tolyl)-1H-pyrazol-5-yl)-3-(4-((2-((6-(methylamino)pyrazin-2-yl)amino)pyridin-4-yl)methoxy)naphthalen-1-yl) urea] | 4.8 | 173 |

Second part, the compound after the results:

| IC50 [1] [nM] | IC50 (p38MAPKγ (MAPK12)) [nM] | SMILES |
| --- | --- | --- |
| 3 | 46 | Cc1ccc(-n2nc(C(C)(C)C)cc2NC(=O)Nc2ccc(OCc3ccnc(Nc4cnc(C(=O)N5CCN(C)C(=O)C5)cn4)c3)c3ccccc23)cc1 [Example 244, 1-(3-(tert-butyl)-1-(p-tolyl)-1H-pyrazol-5-yl)-3-(4-((2-((5-(4-methyl-3-oxopipera-zine-1-carbonyl)pyrazin-2-yl)amino)pyridin-4-yl)methoxy)naphthalen-1-yl) urea] |
| 25 | 259 | CCc1cncc(Nc2cc(COc3ccc(NC(=O)Nc4cc(C(C)(C)C)nn4-c4ccc(C)c(F)c4)c4ccccc34)ccn2)n1 [Example 167, 1-(3-(tert-butyl)-1-(3-fluoro-4-methylphenyl)-1H-pyrazol-5-yl)-3-(4-((2-((6-ethylpyrazin-2-yl)amino)pyridin-4-yl)methoxy)naphthalen-1-yl) urea] |
| 10 | 49 | COCCc1cncc(Nc2cc(COc3ccc(NC(=O)Nc4cc(C(C)(C)C)nn4-c4ccc(C)cc4)c4ccccc34)ccn2)n1 [Example 154, 1-(3-(tert-butyl)-1-(p-tolyl)-1H-pyrazol-5-yl)-3-(4-((2-((6-(2-methoxyethyl)pyrazin-2-yl)amino)pyridin-4-yl)methoxy)naphthalen-1-yl)urea] |
| < 0.39 | 51 | Cc1ccc(-n2nc(C(C)(C)C)cc2NC(=O)Nc2ccc(OCc3ccnc(Nc4cnc(C(=O)NCCC5CCN(C)CC5)cn4)c3)c3ccccc23)cc1 [Example 266, 5-((4-(((4-(3-(3-(tert-butyl)-1-(p-tolyl)-1H-pyrazol-5-yl)ureido)naphthalen-1-yl)oxy)methyl)pyridin-2-yl)amino)-N-(2-(1-methyl-piperidin-4-yl)ethyl) pyrazine-2-carboxamide] |
| 2 | 26 | CN(C)c1cncc(Nc2cc(COc3ccc(NC(=O)Nc4cc(C(C)(C)C)nn4-c4ccc(CO)cc4)c4ccccc34)ccn2)n1 [Example 114, 1-(3-(tert-butyl)-1-(4-(hydroxymethyl)phenyl)-1H-pyrazol-5-yl)-3-(4-((2-((6-(dimethylamino)pyrazin-2-yl)amino)pyridin-4-yl)methoxy)naphthaien-1-yl)urea] |
| 7.3 | 10200 | COc1ccc(-n2nc(C(C)(C)C)cc2NC(=O)Nc2ccc(OCc3ccnc(Nc4cnc(CO)cn4)c3)c3ccccc23)cc1C [Example 133, 1-(3-(tert-butyl)-1-(4-methoxy-3-methylphenyl)-1H-pyrazol-5-yl)-3-(4-((2-((5-(hydroxymethyl)pyrazin-2-yl)amino)pyridin-4-yl)methoxy)naphthalen-1-yl) urea] |
| 34 | 1200 | CCc1cncc(Nc2cc(COc3ccc(NC(=O)Nc4cc(C(C)(C)C)nn4-c4ccc(OC)c(F)c4)c4ccccc34)ccn2)n1 [Example 168, 1-(3-(tert-butyl)-1-(3-fluoro-4-methoxyphenyl)-1H-pyrazol-5-yl)-3-(4-((2-((6-ethylpyrazin-2-yl)amino)pyridin-4-yl)methoxy)naphthalen-1-yl)urea] |
| 14 | 240 | COCCNC(=O)c1cnc(Nc2cc(COc3ccc(NC(=O)Nc4cc(C(C)(C)C)nn4-c4cccc(C)c4)c4ccccc34)ccn2)cn1 [Example 152, 5-((4-(((4-(3-(3-(tert-butyl)-1-(m-tolyl)-1H-pyrazol-5-yl)ureido)naphthalen-1-yl)oxy)methyl)pyridin-2-yl)amino)-N-(2-methoxyethyl) pyrazine-2-carboxamide] |
| 81 | > 15600 | CCc1ccc(-n2nc(C(C)(C)C)cc2NC(=O)Nc2ccc(OCc3ccnc(Nc4cnc(C)c(C)n4)c3)c3ccccc23)cc1 [Example 251, 1-(3-(tert-butyl)-1-(4-ethyl-phenyl)-1H-pyrazol-5-yl)-3-(4-((2-((5,6-dimethylpyrazin-2-yl)amino)pyridin-4-yl)methoxy)naphthalen-1-yl) urea] |
| 112 | 7900 | CCCc1cncc(Nc2cc(COc3ccc(NC(=O)Nc4cc(C(C)(C)C)nn4-c4cccc(C)c4)c4ccccc34)ccn2)n1 [Example 201, 1-(3-(tert-butyl)-1-(m-tolyl)-1H-pyrazol-5-yl)-3-(4-((2-((6-propylpyrazin-2-yl)amino)pyridin-4-yl)methoxy)naphthalen-1-yl)urea] |
